{
  "source": "patent US8729048B2",
  "about": "“Methods and materials for assessing responsiveness to PARP inhibitors and platinating agents” (Mayo Foundation for Medical Education and Research, priority 2011, dated 2014)",
  "key": {"[1]": {"system": "poly(ADP-ribose) polymer (pADPr) in PEO1 cells", "assay": "Immunoblotting for poly(ADP-ribose) polymer", "type": "cell-based", "conditions": "72 hours, ABT-888 0-40 μM", "protocol": "FIG. 2. DNA-PK is activated following PARP inhibitor exposure in PEO1 cells. (A) Western blots for poly(ADP-ribose) polymer (pADPr) and phosphorylation of DNA-PK substrates (DNA-PKcs autophosphorylation at Thr^2609 and Histone H2AX at Ser^139) in PEO1 cells following 72 hours exposure to increasing concentrations of ABT-888 (0, 0.625, 1.25, 2.5, 5, 10, 20, and 40 μM). Hsp90, total DNA-PKcs, and Histone H1 are used as loading controls. […] (C) Quantitation of cells positive for phospho-H2AX foci in PEO1 and PEO4 cells, following treatment with DMSO, 500 nM DNA-PKi, 20 μM ABT-888 (ABT), ABT-888 and DNA-PKi, 50 μM Etoposide (Etop), or 5 Gy ionizing radiation (IR). […]\nCells were washed twice with calcium- and magnesium-free Dulbecco's phosphate-buffered saline (PBS) and solubilized in 6 M guanidine hydrochloride containing 250 mM Tris-HCl, pH 8.5 at 20° C., 10 mM EDTA, 1% (v/v) 2-mercaptoethanol, and 1 mM freshly added phenylmethylsulfonyl fluoride. After preparation for electrophoresis as described elsewhere (Kaufmann et al., Blood, 89:2098-2104 (1997)), aliquots containing 50 μg of protein (determined by the bicinchoninic acid method—S10) were separated on SDS-polyacrylamide gels containing 8% (w/v) acrylamide, electrophoretically transferred to nitrocellulose, and probed with immunological reagents as described elsewhere (Kaufmann, Anal. Biochem., 296:283-286 (2001)). […]"}, "[2]": {"system": "NHEJ activity in PEO4 cells", "assay": "NHEJ end-joining reporter assay, PEO4", "type": "cell-based", "conditions": "72 hours", "description": "FIG. 3. Error-prone NHEJ activity is enhanced by PARP inhibitors in PEO1 cells. (A) Schematic of the in vivo NHEJ assay. Pem1-Ad2-EGFP is an EGFP-containing vector with a 2.4 kb intron (Pem1) and one exon (Ad2) inserted into the EGFP cassette. Pem1-Ad2-EGFP was cut with either HindIII or I-SceI to produce linearized substrate with compatible overhangs or incompatible inverted overhangs, respectively. Successfully recircularized plasmid will produce intact EGFP, which can be assayed via flow cytometry. Any residual uncut plasmid, due to the insertion of the Ad2 exon within the EGFP open reading frame, will be EGFP negative. A pCherry plasmid was co-transfected with substrate to correct for transfection efficiency. (B) and (C) Quantitation of NHEJ activity in PEO1 and PEO4 cells transfected with HindIII substrate (B) or I-SceI substrate (C) and exposed to ABT-888 for 72 hours. Each data point represents the mean±SEM from 3 independent experiments.\nThe end-joining reporter plasmid pEGFP-Pem1-Ad2 described elsewhere (Wang et al., Nucleic Acids Res., 34:6170-6182 (2006); Seluanov et al., Proc. Natl. Acad. Sci. USA, 101:7624-7629 (2004); and Fattah et al., PLoS Genet., 6:e1000855 (2010); see also (FIG. 3A)) was provided by E. Hendrickson (University of Minnesota, Minneapolis, Minn.) and was digested with either HindIII or I-SceI for 12 hours, and gel purified using a Qiagen gel extraction kit. […]"}},
  "note": "“Also recorded” adds a separate entry of the source.",
  "data": [
    {"smiles": "C[C@]1(c2nc3c(C(N)=O)cccc3[nH]2)CCCN1", "note": "[ABT-888]", "values": [
      {"measurement": "poly(ADP-ribosyl)ation", "setting": "[1]", "value": "decreased"},
      {"measurement": "end-joining of HindIII-linearized substrate", "setting": "[2]", "value": "little effect; also recorded: small increase in end-joining"}
    ]}
  ]
}
